# Reference: US10154973B2, “Quinone compounds for treating APE1 mediated diseases” (Indiana University Research and Technology Corporation, priority 2011, dated 2018)
# Like-named read-outs stand apart in the source and are kept apart here.
# Tests used:
# [1] = tested on: pGF-NFκB in Panc1 cells; test: NFκB luciferase reporter assay in Panc1 pancreatic cancer cells; assay type: cell-based; conditions: Homo sapiens, PANC-1; luciferase activity 40 hrs after treatment; stable pGF-NFκB; read-out: Panel IC50
# Experimental: (§1) Using lentiviral transcriptional reporter vectors, pGreenFire-NFkB, and pGreenFire-mCMV (negative control), from System Biosciences Inc. (Mountainview, Calif.), HEK293-T cells (Lonza, Inc. Allendale, N.J.) are transfected with the constructs and the media containing the viral supernatants is collected. To generate stably expressing reporter cell lines, cancer cell lines are infected with the viral supernatant and the cells are selected with puromycin ([…]) for 5 days. For the experiments, test compound is added and left on the cells before being assayed for luciferase activity. SKOV-3X, Panc1, and SF767 cells with the stable pGF-NFκB are treated with test compounds and assayed 40 hrs later for luciferase activity. Panc1 is a pancreatic cancer cell line; SF767 is the glioma cell line. IC50 values for test compounds are determined.
# [2] = tested on: Skov-3X; test: Growth inhibition of ovarian cancer cells, Skov-3X; assay type: cell-based; conditions: ovarian cancer cell line
# Experimental: (§2) Test compounds are assayed for growth inhibition ability against two 2 ovarian cancer cell lines. IC50 values for test compounds are determined.
# [3] = tested on: pGF-NFκB in SF767 cells; test: NFκB luciferase reporter assay in SF767 glioma cells; assay type: cell-based; conditions: SF767 glioma cell line; luciferase activity 40 hrs after treatment; stable pGF-NFκB
# Experimental: as §1
# [4] = tested on: Hey-C2; test: Growth inhibition of ovarian cancer cells, Hey-C2; assay type: cell-based; conditions: ovarian cancer cell line
# Experimental: as §2
# [5] = Pharmacokinetics in mice; conditions: mouse, in vivo, approximate values
# Experimental: The pharmacokinetics of test compounds are evaluated in mice using conventional methods, using oral (25 mg/kg), intraperitoneal (25 mg/kg), and intravenous routes (5 mg/kg) of administration. The following approximate Cmax (ng/mL) values for test compounds are determined.
# [6] = tested on: NFkB; test: Ape1/Ref1 transcription factor activation (NFkB transactivation); assay type: cell-based; conditions: Hey-C2, SF767, Panc1, and Skov-3X cell lines
# Description: The DNA base excision-repair pathway is responsible for the repair of DNA damage caused by oxidation/alkylation and protects cells against the effects of endogenous and exogenous agents. Removal of the damaged base creates a baseless (AP) site. AP endonuclease1 (Ape1) acts on this site to continue the BER-pathway repair. Failure to repair baseless sites leads to DNA strand breaks and cytotoxicity. In addition to the repair role, Ape1 also functions as a major redox-signaling factor to reduce and activate transcription factors such as AP1, p53, HIF-1alpha, and others that control the expression of genes important for cell survival and cancer promotion and progression. Thus, the Ape1 protein interacts with proteins involved in DNA repair, growth-signaling pathways, and pathways involved in tumor promotion and progression. Test compounds are evaluated for activity in decreasing transactivation of transcription factors.
# [7] = tested on: PaCa-2 cells; test: Pancreatic cancer cell xenograft; assay type: in vivo; conditions: orally 25 mg/kg twice daily for 18 days; PaCa-2 s.c. in NOD/SCID mice; FIG. 1
# Experimental: PaCa-2 cells (2.5×10^6) in 0.2 mL of DMEM media were implanted s.c. into the right flanks of NOD/SCID mice. Test compounds are dissolved in 4% CremophorEL:EtOH (1:1)/saline solution or methylcellulose (0.5%, Sigma). When tumor volumes are greater than about 100 mm^3, test compounds are administered, such as orally, twice daily, 8 hours apart, at 25 mg/kg for 10 to 18 days (5 days on 2 days off schedule). Tumors are measured biweekly and followed for approximately 6 weeks. Tumor volumes are monitored by caliper measurement [tumor volume=length×(perpendicular width)2×0.5] and the average tumor volume in mm^3 for each treatment group is plotted. Treatment corresponds to days 1 to 15. Average tumor volume±SE for the vehicle compared to test compounds (n=7) are analyzed by statistical analysis. Additional details are described in Fishel et al. Mol Cancer Ther. 2011 September; 10(9):1698-708.
# [8] = target: Ape1 (Homo sapiens, UniProt P27695); test: Redox EMSA assay; assay type: biochemical; conditions: electrophoresis, 0.02 mM DTT
# Experimental: Conventional electrophoresis measuring Ape1 expression with 0.02 mM DTT is used to evaluate test compounds. […] Additional details are described in Fishel et al. Mol Cancer Ther. 2011 September; 10(9):1698-708 & Luo et al., Antioxid Redox Signal. 2008 November; 10(11):1853-67.
# Ape1, sequence (P27695 whole entry): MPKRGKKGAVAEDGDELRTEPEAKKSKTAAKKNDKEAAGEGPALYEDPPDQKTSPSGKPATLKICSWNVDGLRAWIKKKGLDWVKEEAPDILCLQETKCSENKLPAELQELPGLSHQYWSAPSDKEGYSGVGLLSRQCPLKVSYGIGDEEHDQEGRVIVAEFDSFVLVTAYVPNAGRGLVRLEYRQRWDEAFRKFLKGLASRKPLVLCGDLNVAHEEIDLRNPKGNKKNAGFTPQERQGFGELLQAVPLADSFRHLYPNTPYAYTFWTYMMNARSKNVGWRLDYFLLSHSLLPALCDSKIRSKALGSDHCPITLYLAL
Compound,IC50 [1] [µM],IC50 [2] [µM],IC50 [3] [µM],IC50 [4] [µM],"Cmax ([5]; intravenous 5 mg/kg, read-out: IV Cmax) [ng/mL]","Cmax ([5]; ip, intraperitoneal 25 mg/kg, read-out: IP Cmax) [ng/mL]","Cmax ([5]; oral 25 mg/kg, read-out: Oral Cmax) [ng/mL]",concentration showing significant signal reduction [8] [µM],% transactivation of NFkB [6],tumor volume compared to untreated control [7],Ape1 expression knock-down compared to E3330 ([8]; in vitro)
COC1=C(C=C(C)C(=O)N(C)C)C(=O)c2ccccc2C1=O [Example 5a],5,17,10,18,200,2000,200,–,–,–,–
CCCC(=CC1=C(OC)C(=O)c2ccccc2C1=O)C(=O)N(CC)CC [Example 5c],8,30,18,25,–,–,–,–,–,–,–
CCCC(=CC1=C(OC)C(=O)c2ccccc2C1=O)C(=O)NOC [Example 5d],7,10,10,11,–,–,–,–,–,–,–

# More lines, main results first:
IC50 [1] [µM],IC50 [2] [µM],IC50 [3] [µM],IC50 [4] [µM],"Cmax ([5]; intravenous 5 mg/kg, read-out: IV Cmax) [ng/mL]","Cmax ([5]; ip, intraperitoneal 25 mg/kg, read-out: IP Cmax) [ng/mL]","Cmax ([5]; oral 25 mg/kg, read-out: Oral Cmax) [ng/mL]",concentration showing significant signal reduction [8] [µM],Compound,% transactivation of NFkB [6],tumor volume compared to untreated control [7],Ape1 expression knock-down compared to E3330 ([8]; in vitro)
10,32,18,22,–,–,–,–,CCCCCCCCCC(=CC1=C(C)C(=O)C(OC)=C(OC)C1=O)C(=O)N(C)OC [Example 6b],–,–,–
9,38,12,28,–,–,–,20,CCCCCCCCCC(=CC1=C(C)C(=O)C(OC)=C(OC)C1=O)C(=O)NOC [Example 6a],significant decrease,significant reduction in tumor volume,improved expression knock-down compared to E3330
52,~100,80,~100,–,–,–,30,"CCCCCCCCC/C(=C\C1=C(C)C(=O)C(OC)=C(OC)C1=O)C(=O)O [Example E3330, reference compound]",–,–,–
